The values below are quoted from earlier work in article PMC7670640 (Pharmacology Research & Perspectives, 2020).

The conditions of the data set: prior terminated phase IIb clinical trial; cited from earlier work.

For the compound `C=C(C)[C@@H]1CC[C@]2(NCCN3CCS(=O)(=O)CC3)CC[C@]3(C)[C@H](CC[C@@H]4[C@@]5(C)CC=C(c6ccc(C(=O)O)cc6)C(C)(C)[C@@H]5CC[C@]43C)[C@@H]12` [GSK3532795], the GI intolerability entry was “GI intolerability (predominantly abdominal pain and diarrhea)”.
